Patent US20040191240A1, “Composition and method for nerve regeneration” (priority 2003, published 2004)
Where no end group is shown, it is not given here.

Tests used:
N1E-115 cells [1] = assay: Growth, cyclin D3 and pRb in N1E-115 cells; format: cell-based; conditions: for phosphorylation state of pRb / protein level of cyclin D3: Western blot; for growth of N1E-115 cells: after transfection
Protocol: (§1) NIH3T3 cells, N1E-115 cells and 293T cells were maintained in DMEM containing 10% fetal bovine serum. Lipofectamine 2000 (Invitrogen) was used for transfection. For the stress fiber formation assay, NIH3T3 cells were cultured in serum-free medium for 16 hours after transfection. Stress fiber formation was evoked by incubating the cells with 10% serum for 10 minutes. Hippocampal neurons were prepared from […], as previously described (Neumann, H. et al., Science. 269:549-552, 1995). Briefly, hippocampi were dissected and the meninges removed. The trimmed tissue was dissociated by trituration. The dissociated cells were plated on dishes pre-coated with poly-L-lysine (Sigma), and cultured in DMEM containing 10% fetal bovine serum for 24 hours. Then, the medium was replaced with DMEM with B27 supplement (Invitrogen), and the cells were transfected with GFP or GFP-ΔNLS-p21. Neuronal morphology was estimated at 24 hours after the transfection.

N1E-115 cells [2] = assay: Morphological analysis of N1E-115 cells; format: cell-based; conditions: for cell population with long neurites / neurite formation: transfection, 48 h, Y-27632 10 μM for 30 minutes
Protocol: N1E-115 cells were transfected with GFP, GFP-full-p21 or GFP-ΔNLS-p21, and cultured in serum-starved condition for 5 hours. Then, the medium was replaced with DMEM containing 10% fetal bovine serum. The cells were fixed at 48 hours after transfection. The morphology of the cells was categorized into 3 groups; neurite positive cells, round cells and the other cells. The cells with longer neurites than their soma were defined as neurite positive cells. The other cells had various features including microspikes, ruffles and a flattened appearance.

myc-Rho-kinase [3] = target: T1, myc-Rho-kinase (Bos taurus, UniProt Q28021); assay: Rho-kinase kinase assay with lysates of transfected 293T cells; format: cell-based
Protocol: Cells were lysed with lysis buffer (50 mM Tris-HCl (pH 7.5), 150 mM NaCl, 10% glycerol, 1% Nonidet-P40 and protease inhibitor cocktail). The kinase assay was carried out using the lysates.

[4] = target: T2, association of p75 with Rho GDI (Homo sapiens, UniProt P08138); assay: Co-precipitation of p75 with recombinant GST-Rho GDI or GST-RhoA; format: binding; conditions: for direct binding of recombinant protein to p75 precipitated from transfected 293T cells: RhoA in the GDP-bound, GTP-bound or nucleotide-depleted state
T2 construct: host or cells: 293T (p75)
T2 sequence (P08138 29-427): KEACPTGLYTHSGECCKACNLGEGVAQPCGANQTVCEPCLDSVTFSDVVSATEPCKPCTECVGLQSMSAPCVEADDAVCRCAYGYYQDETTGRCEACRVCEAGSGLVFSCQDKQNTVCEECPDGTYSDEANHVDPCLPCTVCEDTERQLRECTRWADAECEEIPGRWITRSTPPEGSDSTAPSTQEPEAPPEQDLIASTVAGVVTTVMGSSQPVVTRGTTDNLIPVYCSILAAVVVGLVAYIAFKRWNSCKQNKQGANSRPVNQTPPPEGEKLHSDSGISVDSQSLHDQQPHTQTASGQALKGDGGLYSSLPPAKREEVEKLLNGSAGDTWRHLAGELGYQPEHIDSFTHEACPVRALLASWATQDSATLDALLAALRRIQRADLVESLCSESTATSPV

[5] = target: T3, recombinant human p75-Fc chimera (Homo sapiens, UniProt P08138); assay: Co-precipitation of recombinant p75 and gangliosides; format: binding; conditions: precipitation with protein A sepharose, Western blot
T3 construct: Recombinant p75 extracellular domain fused to Fc purified from Sf21 cells; purchased Genzyme-Techne; host or cells: Sf21
T3 sequence (P08138 29-250 limits assumed): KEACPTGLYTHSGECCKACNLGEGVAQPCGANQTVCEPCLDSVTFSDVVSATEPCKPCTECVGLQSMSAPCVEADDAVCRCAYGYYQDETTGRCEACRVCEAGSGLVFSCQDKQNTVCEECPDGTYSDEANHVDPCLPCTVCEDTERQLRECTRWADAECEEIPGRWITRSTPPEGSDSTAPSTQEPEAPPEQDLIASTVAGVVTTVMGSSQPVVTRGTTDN
Protocol: Recombinant human p75-Fc chimera (1 μg; Genzyme-Techne) and 1 μg of purified ganglioside GT1b (>98% purity, Seikagaku Co.) were incubated in 200 μl 0.025% Tween20/PBS for 2 h, and p75 was precipitated using proteinA sepharose (Amersham Pharmacia Biotech). The resultant precipitates were electrophoretically transferred to polyvinylidene difluoride membranes after SDS-PAGE with 7% gels and were immunoblotted with anti GT1b antibody (IgM, Seikagaku Co.) or anti p75 antibody.

p75 = target: T4, p75 (Mus musculus, UniProt Q9Z0W1); assay: Co-precipitation of p75 with GST-Pep5; format: binding; conditions: lysates from post-natal cerebellum
T4 construct: was incubated with lysates prepared from post-natal cerebellum that abundantly express p75; from tissue; host or cells: post-natal cerebellum lysate
T4 sequence (Q9Z0W1 32-427): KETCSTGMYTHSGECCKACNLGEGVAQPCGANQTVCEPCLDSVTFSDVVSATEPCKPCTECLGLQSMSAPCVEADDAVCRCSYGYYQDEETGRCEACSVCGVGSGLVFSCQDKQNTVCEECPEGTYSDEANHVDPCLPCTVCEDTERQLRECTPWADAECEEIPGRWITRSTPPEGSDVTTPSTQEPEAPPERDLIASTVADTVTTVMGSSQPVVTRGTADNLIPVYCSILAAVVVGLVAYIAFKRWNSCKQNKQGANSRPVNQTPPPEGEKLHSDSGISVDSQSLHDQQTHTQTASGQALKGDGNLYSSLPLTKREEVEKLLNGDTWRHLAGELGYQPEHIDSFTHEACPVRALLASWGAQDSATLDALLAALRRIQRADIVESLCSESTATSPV

RhoA = assay: Affinity-precipitation of GTP-RhoA in cerebellar neurons; format: cell-based, mouse; conditions: MAG-Fc 25 μg/ml, Nogo peptide 4 μM
Protocol: 293 cells were transfected with pcDNA3 vectors containing wild type RhoA whose NH2-terminus is tagged with HA (Yamashita, T. et al., Neuron. 24:585-593, 1999) and/or full-length human p75 by lipofection using Lipofectamine 2000 (Gibco BRL). Cerebellar neurons from P9 mice were isolated as described previously (Cai et al, Neuron, 22:89-101, 1999). Cells were lysed in 50 mM Tris (pH 7.5), 1% Triton X-100, 0.5% sodium deoxycholate, 0.1% SDS, 500 mM NaCl, 10 mM MgCl2, with leupeptin and aprotinin, each at 10 μg/ml. Cell lysates were clarified by centrifugation at 13,000×g at 4° C. for 10 min, and the supernatants were incubated with the 20 μg of GST-Rho binding domain of Rhotekin beads (Upstate Biotech.) at 4° C. for 45 min. The beads were washed 4 times with washing buffer (50 mM Tris (pH 7.5) containing 1% Triton X-100, 150 mM NaCl, 10 mM MgCl2, 10 μg/ml each of leupeptin and aprotinin). Bound Rho proteins were detected by Western blotting using a monoclonal antibody against RhoA (Santa Cruz Biotechnology).
Amino-terminally FLAG-tagged human p75 or the deletion mutants of p75 ICD were cloned into pcDNA3.1 expression plasmid, and were transfected with 293T cells. […] Bound Rho proteins were detected by Western blotting using a monoclonal antibody against RhoA (Santa Cruz Biotechnology).

[6] = target: T5, interaction of p75 with Rho GDI (Homo sapiens, UniProt P08138); assay: Co-immunoprecipitation of p75 with Rho GDI or RhoA in transfected N1E-115 cells; format: cell-based; conditions: N1E-115 cells transfected with FLAG-tagged p75; Nogo peptide 4 μM, MAG-Fc 25 μg/ml, NGF 100 ng/ml
T5 construct: expressed in transfected cells; host or cells: N1E-115
T5 sequence (P08138 29-427): T2 sequence (P08138 29-427)

cerebellar neurons = assay: Neurite outgrowth assay, post-natal cerebellar neurons; format: cell-based, mouse; conditions: cells transfected with myc-tagged Rho GDI
NIH3T3 cells = assay: Stress fiber formation assay; format: cell-based; conditions: serum-starved 16 hours, 10% serum 10 minutes
Protocol: as §1

myc-Rho-kinase [7] = target: T1, myc-Rho-kinase; assay: Co-immunoprecipitation of p21 constructs and Rho-kinase in 293T cells; format: cell-based; conditions: 293T cells cotransfected
Protocol: 293T cells were transfected with myc-Rho-kinase in combination with GFP-full-p21 or GFP-ΔNLS-p21. At 48 hours after transfection, the cells were lysed with 1 ml of lysis buffer (50 mM Tris-HCl (pH 7.5), 150 mM NaCl, 10% glycerol, 0.5% Nonidet-P40 including protease inhibitor cocktail tablets (Roche). The cell lysates were centrifuged at 13,000×g for 20 minutes, and the supernatant was collected. Immunoprecipitations were performed for 2 hours at 4° C. using an anti-p21 mouse monoclonal antibody (Santa Cruz Biotechnology) and 0.75 ml of the supernatant. The immunocomplexes were collected with protein G-Sepharose (Amersham Pharmacia Biotech) slurry (50% v/v), washed 4 times with lysis buffer, and subjected to SDS-PAGE. They were transferred to the polyvinylidene difluoride membranes and probed with the anti-myc rabbit polyclonal antibody (Santa Cruz Biotechnology). Interaction of endogenous proteins in N1E-115 cells was assessed in the same way using anti Rho-kinase antibody.

hippocampal neurons = assay: Neurite outgrowth and branching of hippocampal neurons; format: cell-based; conditions: rat E18, 24 hours after transfection
Protocol: as §1
Cultures of the hippocampal neurons from rat E18 embryos were used. […] Twenty-four hours after transfection, the cells were fixed and immunolabeled with β-tubulin III. The total neurite length per neuron, the axonal length, defined as the length of the longest neurite per neuron, the number of primary processes originating from the neuronal somata, and the number of branch points per neuron were determined (Neumann, H. et al., J. Neurosci. 22:854-862, 2002).

T1 sequence (Q28021 whole entry): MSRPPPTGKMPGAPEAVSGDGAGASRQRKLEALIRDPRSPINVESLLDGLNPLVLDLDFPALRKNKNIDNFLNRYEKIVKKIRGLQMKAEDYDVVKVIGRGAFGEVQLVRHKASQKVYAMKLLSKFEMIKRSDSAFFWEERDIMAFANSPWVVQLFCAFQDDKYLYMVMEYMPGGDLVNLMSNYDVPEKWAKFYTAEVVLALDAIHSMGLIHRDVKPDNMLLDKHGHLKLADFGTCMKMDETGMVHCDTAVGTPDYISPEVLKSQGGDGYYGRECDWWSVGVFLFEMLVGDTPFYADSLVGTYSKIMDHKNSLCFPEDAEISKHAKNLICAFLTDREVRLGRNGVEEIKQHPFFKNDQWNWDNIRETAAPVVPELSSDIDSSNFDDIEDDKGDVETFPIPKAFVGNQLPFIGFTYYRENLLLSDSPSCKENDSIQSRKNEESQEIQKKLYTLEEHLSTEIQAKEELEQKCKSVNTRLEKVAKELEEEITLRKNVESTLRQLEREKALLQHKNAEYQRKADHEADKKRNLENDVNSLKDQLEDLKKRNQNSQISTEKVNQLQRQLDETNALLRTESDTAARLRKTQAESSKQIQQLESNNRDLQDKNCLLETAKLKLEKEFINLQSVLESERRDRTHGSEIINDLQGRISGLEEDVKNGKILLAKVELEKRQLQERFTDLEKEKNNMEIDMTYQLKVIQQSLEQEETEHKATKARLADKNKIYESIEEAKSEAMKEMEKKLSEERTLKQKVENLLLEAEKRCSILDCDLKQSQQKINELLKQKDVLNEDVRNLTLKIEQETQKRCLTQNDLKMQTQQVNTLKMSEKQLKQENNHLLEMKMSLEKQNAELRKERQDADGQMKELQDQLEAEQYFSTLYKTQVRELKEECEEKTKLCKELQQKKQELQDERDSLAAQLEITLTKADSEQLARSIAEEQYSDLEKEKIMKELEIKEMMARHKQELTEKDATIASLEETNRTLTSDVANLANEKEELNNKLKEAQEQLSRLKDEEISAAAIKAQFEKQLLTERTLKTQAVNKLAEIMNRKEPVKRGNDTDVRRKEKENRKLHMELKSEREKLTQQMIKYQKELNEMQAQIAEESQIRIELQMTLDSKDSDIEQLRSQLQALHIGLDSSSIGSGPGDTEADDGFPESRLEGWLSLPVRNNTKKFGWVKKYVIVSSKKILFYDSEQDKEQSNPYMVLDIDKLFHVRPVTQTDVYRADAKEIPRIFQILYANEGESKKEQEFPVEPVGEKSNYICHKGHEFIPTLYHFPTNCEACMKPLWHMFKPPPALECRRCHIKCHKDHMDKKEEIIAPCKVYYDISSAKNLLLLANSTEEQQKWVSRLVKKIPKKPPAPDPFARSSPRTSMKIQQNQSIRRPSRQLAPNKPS

Compound: C[S+](C)[O-] [DMSO, reference compound]
- phosphorylation state of pRb (N1E-115 cells [1]): hyperphosphorylated pRb became undetectable
- protein level of cyclin D3 (N1E-115 cells [1]): strongly increased

Compound: C[C@@H](N)[C@H]1CC[C@H](C(=O)Nc2ccncc2)CC1 [Y-27632, reference compound]
- cell population with long neurites / neurite formation (N1E-115 cells [2]): induced significant neurite formation
- inhibition at 10 µM (myc-Rho-kinase [3]; HEK-293T, Y-27632 10 μM for 30 minutes, read-out: (compared to the original) inhibition of Rho-kinase activity): 51.9%

Compound: CFFRGGFFNHNPRYC [Pep5]
- association of p75 with Rho GDI ([4]; 1 μM GST-Rho GDI, Pep5 at the indicated concentrations): inhibited the association of p75 with Rho GDI dose dependently

Compound: GD1a
- association of ganglioside with recombinant p75 extracellular domain fused to Fc [5]: did not see any interaction

Compound: GM1
- association of ganglioside with recombinant p75 extracellular domain fused to Fc [5]: no interaction

Compound: GST-Pep5: Glutathione S-transferase-fusion protein containing Pep5 (CFFRGGFFNHNPRYC; cysteine pairing not given here; also: GST fusion protein)
- co-precipitation of p75 with GST-Pep5 (p75): presence of a protein corresponding to p75

Compound: GT1b
- association of ganglioside with recombinant p75 extracellular domain fused to Fc [5]: binds to p75 in a manner that is SDS-resistant

Compound: NGF: Nerve growth factor [reference compound]
- RhoA activity in cerebellar granule neurons from wild type mice (P9) (RhoA): rapidly inhibits RhoA activity
- interaction of p75 with Rho GDI and RhoA [6]: abolished the interaction of p75 with Rho GDI as well as RhoA

Compound: Rho GDI: Rho GDP dissociation inhibitor; recombinant GST-Rho GDI or myc-tagged Rho GDI over-expressed in neurons
- inhibitory effects of MAG and the Nogo peptide on neurite outgrowth on over-expression of Rho GDI (cerebellar neurons): abolished these inhibitory effects
- direct binding of recombinant protein to p75 precipitated from transfected 293T cells [4]: bound to p75

Compound: RhoA: bacterially produced RhoA (GST-RhoA)
- direct binding of recombinant protein to p75 precipitated from transfected 293T cells [4]: no interaction between them in any nucleotide state

Compound: full-p21: GFP fused full length p21 (aa 1-164) expressed from pEGFP-full-p21
- protein level of cyclin D3 (N1E-115 cells [1]): strongly increased
- growth of N1E-115 cells (N1E-115 cells [1]): stopped proliferation
- cell rounding (N1E-115 cells [2]; 48 hours after transfection): decreased cell rounding
- cell population with long neurites / neurite formation (N1E-115 cells [2]): no increase in the cell population that had long neurites
- formation of actin stress fibers after the addition of serum (NIH3T3 cells): Extensive actin stress fibers were observed
- co-immunoprecipitation of myc-tagged Rho-kinase with anti-p21 antibody (myc-Rho-kinase [7]): only a faint signal could be detected
- Rho-kinase activity in transfected cells (myc-Rho-kinase [3]): had no significant effect

Compound: ΔNLS-p21: GFP fused p21 with loss of nuclear localization signal (aa 1-140) expressed from pEGFP-ΔNLS-p21
- phosphorylation state of pRb (N1E-115 cells [1]): hyperphosphorylated pRb remained predominant
- protein level of cyclin D3 (N1E-115 cells [1]): no change in the expression
- growth of N1E-115 cells (N1E-115 cells [1]): proliferated until 48 hours after transfection
- cells that extended long neurites (N1E-115 cells [2]; 48 hours after transfection): more than 45%
- increase of cells with long neurites compared to the control (N1E-115 cells [2]; 48 hours after transfection): 3.1 -fold
- formation of actin stress fibers after the addition of serum (NIH3T3 cells): had little stress fiber formation
- co-immunoprecipitation of myc-tagged Rho-kinase with anti-p21 antibody (myc-Rho-kinase [7]): efficiently precipitated myc-tagged Rho-kinase
- number of primary processes (hippocampal neurons): no change
- number of branch points per neuron (hippocampal neurons; control 1.3): 2.6 (±0.3 SEM)
- axonal length (longest neurite per neuron) (hippocampal neurons; control 66.3): 162.9 μm
- total neurite length per neuron (hippocampal neurons; control 135.9): 307.2 μm
